Values quoted from earlier work, collected in PMC6044787 (ACS Omega, 2017).

System: AChE

**Q.** For `C[n+]1ccc2c(c1)[nH]c1ccc(Cl)cc12` [Compound 8, nostocarboline], which IC50 is on record?
**A.** Its IC50 is 5.3 µM.
